The values that follow come from patent publication US11555031B2, “Compounds and methods for regulating insulin secretion” (The Broad Institute, Inc., priority 2017, dated 2023).

Each structure is given as a SMILES string. Entries after “also recorded” stand apart in the source; their conditions may differ.

One test concerns INS-1E cells. The experiment in a line: Luciferase Insulin Secretion Assay (proinsulin-Gaussia luciferase reporter). The class given is cell-based, rat. Further details: key to Activity: Active: a compound is identified as active if the compound has a Z-score greater than 3 in the presence of 16.7 mM glucose; Partial activity indicates that the compound does promote insulin secretion (at lower Z-scores); Lost Glucose Dependence: In some cases, insulin secretion was promoted at both measured insulin concentrations. The conditions noted are these: INS-1E cells; 2.8 mM vs 16.7 mM glucose. From the text: A high-throughput luminescent insulin secretion assay was developed and performed to identify compounds that amplified insulin secretion only in the presence of a permissive glucose environment (FIG. 3). The assay used in compound screening is described in International Patent Publication No. WO2013070796A3, PCT/US2012/063982, and in Burns et al., High-Throughput Luminescent Reporter of Insulin Secretion for Discovering Regulators of Pancreatic Beta-Cell Function. Cell Metab. 2015 Jan. 6; 21(1):126-37.
The assay is a luminescent insulin secretion assay created by inserting Gaussia luciferase within the C-peptide portion of the insulin prohormone. Gaussia luciferase was chosen because of its small size and bright luciferase signal. To ensure full activity of the luciferase, a version was used that was codon-optimized for expression in mammalian cells. The enzyme was flanked with additional cleavage sites for prohormone convertase 2 (PC2), such that no extra amino acids should be present on the ends of the enzyme after processing within the vesicles (FIG. 4). Rat (INS-1E; Merglen et al., 2004) beta-cell lines stably expressing the reporter construct were generated. Assays using this cell type are referred to herein as Luciferase Insulin Secretion Assay.
A search for glucose-dependent insulin secretagogues was conducting by screening 384,216 compounds at a single concentration (10 μM) in duplicate using the Luciferase Insulin Secretion Assay, to identify those that increase insulin secretion only in the presence of high glucose (11.1 mM) (FIG. 6). These assays were performed in 1536 well format. A Z′ factor of 0.35 was obtained with respect the positive control (300 μM IBMX). The cutoff value selected was 45% activation, which was 3-4 standard deviations above background (solid uppermost line; FIG. 6).
For standard secretion assays, INS-1E cells were plated in 96-well format, preincubated for 1 hr in Krebs Ringer Buffer (KRB) with 2.8 mM glucose, and then stimulated for 1 hr in fresh KRB containing varying amounts of glucose and compounds. Insulin or C-peptide concentration was determined using an ELISA (Mercodia), following the manufacturer's protocol. Luciferase activity was determined from the same samples by adding the coelenterazine substrate to the supernatant to a final concentration of 10 μM and reading on a standard plate reader (BioTek).
INS-1E cells were expanded to 80% confluence in their growth medium, washed once in PBS, and preincubated for 1 hr at 37° C. in KRB with 2.8 mM glucose. Cells were then dissociated, spun at 300×g for 2 min, resuspended in fresh KRB without glucose, and filtered through 40 μm mesh (Becton Dickinson). Next, the cells were counted and diluted in KRB to 1×10^6 cells per ml, and glucose was added as required for each experiment. Cells were then seeded in 384-well format, 3×10^4 cells in 30 μl per well, using a Multidrop Combi device (Thermo Scientific). Compounds were pinned into each well using a Vario robot (CyBio) to a final concentration of 30 μM, and the plates were then incubated for 2 hr at 37° C. For assays involving a transfer step, the plates were then centrifuged at 300×g for 2 min, and 20 μl of supernatant was transferred to a new 384-well plate. Coelenterazine substrate was then added to a final concentration of 10 μM, and luciferase activity was determined using a standard plate reader (BioTek).
(In a reporter assay the amount or activity of a reporter protein is the signal.)
As to `Cc1sc2c(c1C)C(c1ccc(Cl)cc1)=N[C@@H](CC(=O)OC(C)(C)C)c1nnc(C)n1-2` [JQ1, reference compound], the “glucose-dependent (glucose-stimulated) insulin secretion, luciferase reporter” value was “None of the compounds assayed increased glucose-dependent insulin secretion; also recorded: No increase in secretion; also recorded: small effect”.
The same measure, in the same setting: the entry for `COc1ccc(CCc2nc3cc(-c4c(C)noc4C)ccc3n2C[C@H](C)N2CCOCC2)cc1Cl` [SGC-CBP30, reference compound] is “None of the compounds assayed increased glucose-dependent insulin secretion”.
Still for that read-out and setting: the entry for `COc1ccc(CCc2nc3cc(-c4c(C)noc4C)ccc3n2C[C@H](C)N2CCOCC2)cc1Cl` [CBP30, reference compound] is “neither of the known bromodomain inhibitors (PF1 or CBP30) affect secretion to the extent of Compound 8”.
For `Cc1cccc(C)c1NC(=O)c1ccc(OCc2c(C)noc2C)cc1` [Compound 16], the “glucose-dependent (glucose-stimulated) insulin secretion, luciferase reporter” value is listed as “some positive effect on secretion”.

The same test, now with this note: INS-1E cells; high compound concentrations.
`Cc1sc2c(c1C)C(c1ccc(Cl)cc1)=N[C@@H](CC(=O)OC(C)(C)C)c1nnc(C)n1-2` [JQ1, reference compound]: the “effect on glucose-stimulated insulin secretion at high concentrations” value is “inhibitory effects; also recorded: decrease in glucose-stimulated secretion”.
Same read-out and setting: the entry for `COc1ccc(CCc2nc3cc(-c4c(C)noc4C)ccc3n2C[C@H](C)N2CCOCC2)cc1Cl` [SGC-CBP30, reference compound] is “inhibitory effects”.

The same test, now with this note: glucose dependence of insulin secretion; Z-score in the presence of 16.7 mM glucose.
With `Cc1cccc(NC(=O)c2ccc(OCc3c(C)cnn3C)cc2)c1C` [Compound 48], the result was Inactive.
For the compound `Cc1cccc(NC(=O)c2ccc(OCc3cccnc3C)cc2)c1C` [Compound 63, N-(2,3-Dimethyl-phenyl)-4-(2-methyl-pyridin-3-ylmethoxy)-benzamide], the result was Inactive.
In the case of `Cc1cccc(NC(=O)c2ccc(OCc3c(C)nn(C)c3C)cc2)c1C` [Compound 54], the outcome was Inactive.
As to `COc1ncccc1COc1ccc(C(=O)Nc2cccc(C)c2C)cc1` [Compound 65, N-(2,3-Dimethyl-phenyl)-4-(2-methoxy-pyridin-3-ylmethoxy)-benzamide], the result was Inactive.
The same measure, in the same setting: the same measure for `Cc1ccccc1NC(=O)c1ccc(OCc2c(C)noc2C)cc1` [Compound 76]: “Inactive”.
On to `Cc1cccc(-c2cc(-c3ccc(NCc4c(C)noc4C)cc3)[nH]n2)c1C` [Compound 28], for which the outcome was Inactive.
As for `Cc1cccc(NC(=O)c2ccc(/C=C/c3c(C)noc3C)cc2)c1C` [Compound 55], the Activity entry is on record as “Partial activity, Lost Glucose Dependence”.
Take `COCc1ccccc1NC(=O)c1ccc(OCc2c(C)noc2C)cc1` [Compound 96, 4-(3,5-Dimethyl-isoxazol-4-ylmethoxy)-N-(2-methoxymethyl-phenyl)-benzamide]: the result was Inactive.
On the same count and under the same terms, the same measure for `Cc1cccc(NC(=O)c2ccc(CN(C)c3c(C)noc3C)cc2)c1C` [Compound 58, 4-{[(3,5-Dimethyl-isoxazol-4-yl)-methyl-amino]-methyl}-N-(2,3-dimethyl-phenyl)-benzamide]: “Inactive”.
The same measure, in the same setting: the same measure for `Cc1cccc(NC(=O)c2ccc(OCc3c(C)noc3C)cc2)c1Cl` [Compound 78, N-(2-Chloro-3-methyl-phenyl)-4-(3,5-dimethyl-isoxazol-4-ylmethoxy)-benzamide]: “Inactive”.
On the same count and under the same terms, the same measure for `Cc1noc(C)c1COc1ccc(C(=O)N2CCc3ccccc32)cc1` [Compound 79]: “Inactive”; for `Cc1cccc(-c2cnc(-c3ccc(NCc4c(C)noc4C)cc3)[nH]2)c1C` [Compound 27]: “Inactive”.
`CC(=O)NCCCc1cc(C(=O)Nc2cccc(C)c2C)ccc1OCc1c(C)noc1C` [Compound 88, 3-(3-Acetylamino-propyl)-4-(3,5-dimethyl-isoxazol-4-ylmethoxy)-N-(2,3-dimethyl-phenyl)-benzamide]: the result was Active.
Consider `Cc1cccc(-c2cnc(-c3ccc(OCc4c(C)noc4C)cc3)[nH]2)c1C` [Compound 94], for which the outcome was Inactive.
As to `Cc1noc(C)c1COc1ccc(C(=O)N2CCCc3ccccc32)cc1` [Compound 80], the result was Inactive.
Turning to `Cc1cccc(-c2cc(-c3ccc(OCc4c(C)noc4C)cc3)n[nH]2)c1C` [Compound 95], the result was Inactive.
Turning to `Cc1noc(C)c1COc1ccc(C(=O)Nc2cccc(Cl)c2Cl)cc1` [Compound 68, N-(2,3-Dichloro-phenyl)-4-(3,5-dimethyl-isoxazol-4-ylmethoxy)-benzamide], the outcome was Active.
With `Cc1cccc(NC(=O)c2ccc(OCc3c(C)noc3C)cc2)c1` [Compound 75], the outcome was Inactive.
For `Cc1cc(OCc2c(C)noc2C)ccc1-c1cnc(-c2cccc(C)c2C)[nH]1` [Compound 93], the outcome was Inactive.
The same measure, in the same setting: the entry for `Cc1cccc(NC(=O)c2ccc(OCc3cn(C)nc3C)cc2)c1C` [Compound 53] is “Inactive”; for `Cc1cccc(NC(=O)c2ccc(OCc3c(C)noc3C)cn2)c1C` [Compound 45] it is “Inactive”; for `Cc1cccc(NC(=O)c2ccc(OCc3ccnnc3)cc2)c1C` [Compound 59, N-(2,3-Dimethyl-phenyl)-4-(pyridazin-4-ylmethoxy)-benzamide] it is “Inactive”.
The same measure, in the same setting: the entry for `Cc1cccc(NS(=O)(=O)c2ccc(OCc3c(C)noc3C)cc2)c1C` [Compound 97, 4-(3,5-Dimethyl-isoxazol-4-ylmethoxy)-N-(2,3-dimethyl-phenyl)-benzenesulfonamide] is “Inactive”.
Same read-out and setting: the same measure for `Cc1cccc(NC(=O)c2ccc(OCc3ccncc3)cc2)c1C` [Compound 60, N-(2,3-Dimethyl-phenyl)-4-(pyridin-4-ylmethoxy)-benzamide]: “Inactive”; for `CC(=O)NCc1ccccc1NC(=O)c1ccc(OCc2c(C)noc2C)cc1` [Compound 90, N-[2-(Acetylamino-methyl)-phenyl]-4-(3,5-dimethyl-isoxazol-4-ylmethoxy)-benzamide]: “Inactive”; for `Cc1cccc(NC(=O)c2ccc(OC(C)c3c(C)noc3C)cc2)c1C` (stereo not drawn) [Compound 52]: “Inactive”.
`Cc1cccc(NC(=O)c2ccc(OCc3cccnc3)cc2)c1C` [Compound 61, N-(2,3-Dimethyl-phenyl)-4-(pyridin-3-ylmethoxy)-benzamide]: the result was Inactive.
Take `Cc1cccc(NC(=O)c2ccc(OCc3c(C)ccnc3C)cc2)c1C` [Compound 50, N-(2,3-Dimethyl-phenyl)-4-(2,4-dimethyl-pyridin-3-ylmethoxy)-benzamide]: the outcome was Inactive.
Consider `Cc1cccc(NC(=O)c2ccc(OCc3ccccn3)cc2)c1C` [Compound 62], for which the result was Inactive.
Same read-out and setting: the same measure for `CC1=CC(=O)Cc2cc(COc3ccc(C(=O)Nc4cccc(C)c4C)cc3)ccc21` [Compound 51]: “Partial activity, Lost Glucose Dependence”.
On the same count and under the same terms, the entry for `Cc1noc(C)c1COc1ccc(C(=O)NC2CCCO2)cc1` (stereo not drawn) [Compound 86] is “Inactive”; for `Cc1noc(C)c1COc1ccc(C(=O)Nc2cccc(Cl)c2C)cc1` [Compound 72, N-(3-Chloro-2-methyl-phenyl)-4-(3,5-dimethyl-isoxazol-4-ylmethoxy)-benzamide] it is “Active”; for `CC(=O)NCc1cccc(NC(=O)c2ccc(OCc3c(C)noc3C)cc2)c1` [Compound 91, N-[3-(Acetylamino-methyl)-phenyl]-4-(3,5-dimethyl-isoxazol-4-ylmethoxy)-benzamide] it is “Inactive”.
For `Cc1cccc(NS(=O)(=O)c2ccc(NCc3c(C)noc3C)cc2)c1C` [Compound 32], the outcome was Inactive.
On the same count and under the same terms, the same measure for `Cc1cccc(NC(=O)c2ccc(CNc3c(C)noc3C)cc2)c1C` [Compound 57, 4-[(3,5-Dimethyl-isoxazol-4-ylamino)-methyl]-N-(2,3-dimethyl-phenyl)-benzamide]: “Inactive”; for `Cc1ccc2nc(-c3ccc(NCc4c(C)noc4C)cc3)[nH]c2c1C` [Compound 36]: “Inactive”.
